From patent US9034793B2, “Use of ribose to enhance plant growth” (Bioenergy, Inc., priority 2002, dated 2015)

Test system: bean seeds
Assay: Plant growth and yield from bean seeds, daylight or darkness (Example 2)
Format: in vivo
Experimental: Three different treatments were explored on bean seeds to determine the effects of ribose (at two different doses) on plant growth and proliferation. [The three treatments include control (plain water), a 0.1332 M solution of ribose (5 g D-ribose dissolved in 250 ml water), and a 0.0666 M solution of ribose (5 g D-ribose dissolved in 500 ml water)]. The plants were kept under two different conditions, normal daylight and darkness. A total of six plants will be tested, with the conditions that each plant were tested at listed below. Treatments: [table] Each seed was planted under identical conditions (soil and pot size) and all at the same time. The environmental conditions (such as temperature and humidity), except for lighting, were kept constant for all the plants. Once potted, each seed received one to two tablespoons of treatment liquid (as mentioned above). A daily record was kept of the activity of each plant. Watering was done on every other day (or sooner if the soil was deemed too dry by the researcher), each again receiving one tablespoon of treatment liquid. Assessment of the effects of ribose fertilization was determined by measuring the time to the first appearance of a plant from the soil, the rate of growth, and leaf size. Table 3 represents the accumulated plant growth data from Example 2 and FIGS. 3 and 4 are graphic presentations of plant growth during light and dark conditions.

SMILES: O=C[C@H](O)[C@H](O)[C@H](O)CO [5/250, D-ribose]
- Amount of Growth Between Measurements (Dark, Day 0 (17-Sep)): 0
- Plant growth-height (Dark, Day 0 (17-Sep)): 0
- Rate of Growth Between Measurements (Dark, Day 0 (17-Sep)): 0
- Amount of Growth Between Measurements (Dark, Day 3 (20-Sep)): 0
- Plant growth-height (Dark, Day 3 (20-Sep)): 0
- Rate of Growth Between Measurements (Dark, Day 3 (20-Sep)): 0
- Amount of Growth Between Measurements (Dark, Day 5 (22-Sep)): 0
- Plant growth-height (Dark, Day 5 (22-Sep)): 0
- Rate of Growth Between Measurements (Dark, Day 5 (22-Sep)): 0
- Rate of Growth Overall Thru Date (Dark, Day 5 (22-Sep)): 0
- Amount of Growth Between Measurements (Dark, Day 7 (24-Sep)): 4.4
- Plant growth-height (Dark, Day 7 (24-Sep)): 4.4
- Rate of Growth Between Measurements (Dark, Day 7 (24-Sep)): 2.20
- Rate of Growth Overall Thru Date (Dark, Day 7 (24-Sep)): 0.63
- Amount of Growth Between Measurements (Dark, Day 8 (25-Sep)): 4.1
- Plant growth-height (Dark, Day 8 (25-Sep)): 8.5
- Rate of Growth Between Measurements (Dark, Day 8 (25-Sep)): 4.10
- Rate of Growth Overall Thru Date (Dark, Day 8 (25-Sep)): 1.06
- Amount of Growth Between Measurements (Dark, Day 9 (26-Sep)): 4.7
- Plant growth-height (Dark, Day 9 (26-Sep)): 13.2
- Rate of Growth Between Measurements (Dark, Day 9 (26-Sep)): 4.70
- Rate of Growth Overall Thru Date (Dark, Day 9 (26-Sep)): 1.47
- Amount of Growth Between Measurements (Dark, Day 10 (27-Sep)): 2.1
- Plant growth-height (Dark, Day 10 (27-Sep)): 15.3
- Rate of Growth Between Measurements (Dark, Day 10 (27-Sep)): 2.10
- Rate of Growth Overall Thru Date (Dark, Day 10 (27-Sep)): 1.53
- Amount of Growth Between Measurements (Dark, Day 11 (28-Sep)): 2.3
- Plant growth-height (Dark, Day 11 (28-Sep)): 17.6
- Rate of Growth Between Measurements (Dark, Day 11 (28-Sep)): 2.30
- Rate of Growth Overall Thru Date (Dark, Day 11 (28-Sep)): 1.60
- Amount of Growth Between Measurements (Dark, Day 12 (29-Sep)): 2
- Plant growth-height (Dark, Day 12 (29-Sep)): 19.6
- Rate of Growth Between Measurements (Dark, Day 12 (29-Sep)): 2.00
- Rate of Growth Overall Thru Date (Dark, Day 12 (29-Sep)): 1.63
- Amount of Growth Between Measurements (Dark, Day 13 (30-Sep)): 1.5
- Plant growth-height (Dark, Day 13 (30-Sep)): 21.1
- Rate of Growth Between Measurements (Dark, Day 13 (30-Sep)): 1.50
- Rate of Growth Overall Thru Date (Dark, Day 13 (30-Sep)): 1.62
- Amount of Growth Between Measurements (Dark, Day 16 (3-Oct)): 3.6
- Plant growth-height (Dark, Day 16 (3-Oct)): 24.7
- Rate of Growth Between Measurements (Dark, Day 16 (3-Oct)): 1.20
- Rate of Growth Overall Thru Date (Dark, Day 16 (3-Oct)): 1.54
- Amount of Growth Between Measurements (Light, Day 0 (17-Sep)): 0
- Plant growth-height (Light, Day 0 (17-Sep)): 0
- Rate of Growth Between Measurements (Light, Day 0 (17-Sep)): 0
- Amount of Growth Between Measurements (Light, Day 3 (20-Sep)): 0
- Plant growth-height (Light, Day 3 (20-Sep)): 0
- Rate of Growth Between Measurements (Light, Day 3 (20-Sep)): 0
- Amount of Growth Between Measurements (Light, Day 5 (22-Sep)): 1.1
- Plant growth-height (Light, Day 5 (22-Sep)): 1.1
- Rate of Growth Between Measurements (Light, Day 5 (22-Sep)): 0.55
- Rate of Growth Overall Thru Date (Light, Day 5 (22-Sep)): 0.22
- Amount of Growth Between Measurements (Light, Day 7 (24-Sep)): 4.4
- Plant growth-height (Light, Day 7 (24-Sep)): 5.5
- Rate of Growth Between Measurements (Light, Day 7 (24-Sep)): 2.20
- Rate of Growth Overall Thru Date (Light, Day 7 (24-Sep)): 0.79
- Amount of Growth Between Measurements (Light, Day 8 (25-Sep)): 9.5
- Plant growth-height (Light, Day 8 (25-Sep)): 15
- Rate of Growth Between Measurements (Light, Day 8 (25-Sep)): 9.50
- Rate of Growth Overall Thru Date (Light, Day 8 (25-Sep)): 1.88
- Amount of Growth Between Measurements (Light, Day 9 (26-Sep)): 4.1
- Plant growth-height (Light, Day 9 (26-Sep)): 19.1
- Rate of Growth Between Measurements (Light, Day 9 (26-Sep)): 4.10
- Rate of Growth Overall Thru Date (Light, Day 9 (26-Sep)): 2.12
- Amount of Growth Between Measurements (Light, Day 10 (27-Sep)): 4
- Plant growth-height (Light, Day 10 (27-Sep)): 23.1
- Rate of Growth Between Measurements (Light, Day 10 (27-Sep)): 4.00
- Rate of Growth Overall Thru Date (Light, Day 10 (27-Sep)): 2.31
- Amount of Growth Between Measurements (Light, Day 11 (28-Sep)): 2.6
- Plant growth-height (Light, Day 11 (28-Sep)): 25.7
- Rate of Growth Between Measurements (Light, Day 11 (28-Sep)): 2.60
- Rate of Growth Overall Thru Date (Light, Day 11 (28-Sep)): 2.34
- Amount of Growth Between Measurements (Light, Day 12 (29-Sep)): 0.7
- Plant growth-height (Light, Day 12 (29-Sep)): 26.4
- Rate of Growth Between Measurements (Light, Day 12 (29-Sep)): 0.70
- Rate of Growth Overall Thru Date (Light, Day 12 (29-Sep)): 2.20
- Amount of Growth Between Measurements (Light, Day 13 (30-Sep)): 0.2
- Plant growth-height (Light, Day 13 (30-Sep)): 26.6
- Rate of Growth Between Measurements (Light, Day 13 (30-Sep)): 0.20
- Rate of Growth Overall Thru Date (Light, Day 13 (30-Sep)): 2.05
- Amount of Growth Between Measurements (Light, Day 16 (3-Oct)): 1.7
- Plant growth-height (Light, Day 16 (3-Oct)): 28.3
- Rate of Growth Between Measurements (Light, Day 16 (3-Oct)): 0.57
- Rate of Growth Overall Thru Date (Light, Day 16 (3-Oct)): 1.77
- Amount of Growth Between Measurements (Light, Day 19 (6-Oct)): −0.7
- Plant growth-height (Light, Day 19 (6-Oct)): 27.6
- Rate of Growth Between Measurements (Light, Day 19 (6-Oct)): −0.23
- Rate of Growth Overall Thru Date (Light, Day 19 (6-Oct)): 1.45
